Data taken from PubChem BioAssay (NCI).
Several values for one entry are separate records, joined by “and”; a condition that tells them apart may be missing. Equal entries are not always repeated.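 Step 1: Grow cells in 96-well plates. Step 2: Expose to compound for 48 hours at 5 concentrations. Step 3: Interpolate endpoints linearly; if unreached, use highest concentration. GI50 marks 50% less growth. Definition used: TGI = concentration required for complete inhibition of growth.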

Experiments:
Experiment in all cases: NCI tumour cell line growth inhibition, 48 h
XF 498 CNS = tested on: XF 498 CNS
SN12K1 renal = tested on: SN12K1 renal
DMS 273 small cell lung = tested on: DMS 273 small cell lung
SNB-78 CNS = tested on: SNB-78 CNS
RXF-631 renal = tested on: RXF-631 renal
DMS 114 small cell lung = tested on: DMS 114 small cell lung
DLD-1 colon = tested on: DLD-1 colon
P388/ADR leukemia = tested on: P388/ADR leukemia
KM20L2 colon = tested on: KM20L2 colon
MDA-N = tested on: MDA-N
M19-MEL melanoma = tested on: M19-MEL melanoma
P388 leukemia = tested on: P388 leukemia

| Structure (SMILES) | TGI (XF 498 CNS) [µM] | TGI (DMS 273 small cell lung) | TGI (SNB-78 CNS) | TGI (DMS 114 small cell lung) | TGI (DLD-1 colon) | TGI (KM20L2 colon) | TGI (MDA-N) [µM] | TGI (M19-MEL melanoma) | other results |
| --- | --- | --- | --- | --- | --- | --- | --- | --- | --- |
| Cc1c2ccn(O)cc2c(C)c2c1nc1ccccc12 | 20.9 | 31.1 µM | > 69.6 µM | 47.1 µM | > 100 µM | > 100 µM | > 100 | > 100 µM | TGI (SN12K1 renal): 27.3 µM; TGI (RXF-631 renal): > 100 µM; TGI (P388/ADR leukemia): > 42.2 µM |
| Cc1n[nH]c(=S)n(C)c1=S | > 100 | > 100 µM | > 100 µM | > 100 µM | > 100 µM | > 100 µM | – | > 100 µM | TGI (RXF-631 renal): > 100 µM |
| COC(=O)c1ccccc1N(C(=O)c1ccccc1)c1ccccc1C | 60.4 | > 100 µM | – | > 100 µM | > 100 µM | > 100 µM | – | > 100 µM | – |
| CCOC(=O)C(=O)Nc1nc2c(OCC)cccc2s1 | – | > 100 µM | > 100 µM | > 100 µM | > 100 µM | > 100 µM | – | > 100 µM | TGI (RXF-631 renal): > 100 µM |
| N.N.N.N.N.NC(=O)[O-].[Co+3].[I-] | – | > 100 µM | > 100 µM | – | > 100 µM | > 100 µM | – | – | GI50 (DMS 273 small cell lung): > 100 µM; GI50 (SNB-78 CNS): > 100 µM; GI50 (DLD-1 colon): > 100 µM; GI50 (KM20L2 colon): > 100 µM |
| CC(C)N(O)C(=N)c1ccccc1 | – | – | > 100 µM | > 100 µM | > 100 µM | > 100 µM | – | > 100 µM | – |
| Cc1ccc(-c2nc3ccccc3c(=O)n2NCC2(O)OCC(O)C(O)C2O)cc1 (centres undefined) | – | > 100 µM | > 100 µM | > 100 µM | – | > 100 µM | – | > 100 µM | – |
| C=C(CO)CC(O)c1cc(OC)ccc1OC (centres undefined) | > 100 | > 100 µM | – | – | – | – | – | > 100 µM | – |
| C[C@]12CCC(=O)C(OC(=O)c3ccc([N+](=O)[O-])cc3)=C1CCC2=O | – | > 100 µM | > 100 µM | > 100 µM | > 100 µM | > 100 µM | – | > 100 µM | – |
| COc1cc(OC)c(C(=O)c2cccs2)cc1N | > 100 | > 100 µM | > 100 µM | > 100 µM | > 100 µM | > 100 µM | – | > 100 µM | TGI (RXF-631 renal): > 100 µM |
| COc1cc2c3cc1Oc1c(OC)c(OC)cc4c1C(=NCC4)Cc1ccc(cc1)Oc1cc(ccc1O)C[C@H]3N(C)CC2 | – | – | – | – | – | – | 31 | – | – |
| NC(N)=NCC1CCCCCCN1 (centres undefined) | – | – | – | – | – | – | > 100 | – | – |
| CC1=C2CC(C)(C)/C=C\C(=O)/C(C)=C\C3=C[C@H](C)C[C@]3(O2)C1=O | – | – | – | – | – | – | 9.98 | – | – |
| CC(C)N1CCN(c2ccncc2S(=O)(=O)N2CCCCC2)CC1 | – | – | – | – | – | – | > 100 | – | – |
| CN1CN(C2OC(CO)C(O)C2O)c2nc(N)[nH]c(=O)c21 (centres undefined) | > 100 | > 100 µM | > 100 µM | > 100 µM | > 100 µM | > 100 µM | – | > 100 µM | – |
| COc1cc(/C=C(\NC(=O)c2ccccc2)c2nc3ccc4c(c3[nH]2)C(=O)c2ccccc2C4=O)cc(OC)c1OC | > 100 | > 100 µM | > 100 µM | > 100 µM | > 100 µM | > 100 µM | – | > 100 µM | TGI (RXF-631 renal): > 100 µM |
| N#CC(C(=O)C(=O)Nc1ccccc1)c1ccccc1 (centres undefined) | > 100 | > 100 µM | – | – | > 100 µM | > 100 µM | – | > 100 µM | – |

| Structure (SMILES) | TGI (XF 498 CNS) [µM] | TGI (DMS 273 small cell lung) | TGI (SNB-78 CNS) | TGI (DMS 114 small cell lung) | TGI (DLD-1 colon) | TGI (KM20L2 colon) | TGI (MDA-N) [µM] | TGI (M19-MEL melanoma) | other results |
| --- | --- | --- | --- | --- | --- | --- | --- | --- | --- |
| O=C1C(=O)N(c2ccc(Cl)cc2)C(=O)C(=O)C1c1nc2ccccc2o1 | > 100 | > 100 µM | > 100 µM | > 100 µM | > 100 µM | > 100 µM | – | > 100 µM | TGI (RXF-631 renal): > 100 µM |
| O=C(O)C[C@@H](Cl)[C@H](NC(=O)OCc1ccccc1)C(=O)O | > 100 | > 100 µM | > 100 µM | > 100 µM | > 100 µM | > 100 µM | – | > 100 µM | – |
| BrC(Br)=C1C(=C(Br)Br)C(Br)C1Br (centres undefined) | – | 1.25 µM | 3.54 µM | 0.552 µM | 1.98 µM | 3.04 µM | 1.92 | 1.99 µM | – |
| COc1cc(Oc2c(C)c(Cl)c(OC)c(Cl)c2OC)c2c(c1Cl)COC2=O | – | – | – | – | – | – | 69.2 | – | – |
| CC(=O)Nc1cc2cc(N)ccc2oc1=O | – | – | – | – | – | – | > 100 | – | – |
| CCC(=O)N1C(=O)OCC1C(C)C (centres undefined) | > 100 | > 100 µM | > 100 µM | > 100 µM | > 100 µM | > 100 µM | – | > 100 µM | TGI (RXF-631 renal): > 100 µM |
| CC(C)C12Cc3c(ccc4ccccc34)OC1(C)Oc1ccc3ccccc3c1C2 (centres undefined) | > 100 | > 100 µM | > 100 µM | > 100 µM | > 100 µM | > 100 µM | – | – | – |
| N/N=C1\C(=O)N(Cc2ccccc2)C(=O)C1C(=O)NCc1ccccc1 (centres undefined) | – | – | > 100 µM | > 100 µM | > 100 µM | > 100 µM | – | > 100 µM | – |
| C=C1CC2(CC(c3ccccc3Cl)OC(c3ccccc3Cl)C2)OC1=O (centres undefined) | – | – | – | – | – | – | 3.86 | – | – |
| CO[C@H]1C=CO[C@@]2(C)Oc3c(C)c(O)c4c(O)c(c(CN5CCN(C)CC5)c(O)c4c3C2=O)NC(=O)/C(C)=C\C=C[C@H](C)[C@H](O)C(C)[C@@H](O)C(C)[C@H](OC(C)=O)[C@@H]1C (some centres undefined) | – | – | – | – | – | – | > 100 | – | – |
| O=S(=O)([O-])c1ccc(N=Cc2ccccc2[O-])cc1.O=S(=O)([O-])c1ccc(N=Cc2ccccc2[O-])cc1.[Co+2] | > 100 | – | > 100 µM | > 100 µM | > 100 µM | – | – | > 100 µM | GI50 (XF 498 CNS): 53.5 µM; GI50 (SNB-78 CNS): > 100 µM; GI50 (DMS 114 small cell lung): 28.3 µM; GI50 (DLD-1 colon): 51.1 µM; GI50 (M19-MEL melanoma): 76.5 µM |
| CC(CC(=O)N1C(=O)C(C)(C)[C@@H](O)[C@H]1CC(C)C(Cl)(Cl)Cl)C(Cl)(Cl)Cl (some centres undefined) | > 100 | > 100 µM | > 100 µM | > 100 µM | > 100 µM | > 100 µM | – | > 100 µM | – |
| COC(OC)c1cc2c(cc1C=O)OCO2 | – | > 100 µM | > 100 µM | > 100 µM | > 100 µM | > 100 µM | – | > 100 µM | – |
| CO[C@@H]1C=C[C@@]23c4cc5c(cc4CN(C[C@@H]2O)[C@H]3C1)OCO5 | > 100 | – | > 100 µM | > 100 µM | > 100 µM | > 100 µM | – | > 100 µM | – |
| CSCS(=O)C[C@H](CO)NC(=O)/C=C/c1c(C)[nH]c(=O)[nH]c1=O (some centres undefined) | 0.548 | 28.1 µM and 4.54 µM | 5.91 µM and 2.74 µM | 6.61 µM and 3.1 µM | > 23.4 µM and 7.25 µM | 12 µM and 4.35 µM | – | 15.2 µM and 3.32 µM | TGI (SN12K1 renal): 4.42 µM; GI50 (DMS 273 small cell lung): 3.38 µM; GI50 (SNB-78 CNS): 0.919 µM; TGI (RXF-631 renal): 14.7 µM; GI50 (DMS 114 small cell lung): 1.7 µM; TGI (P388 leukemia): 1.78 µM; GI50 (DLD-1 colon): 2.23 µM; TGI (P388/ADR leukemia): 7.12 µM; GI50 (KM20L2 colon): 2.07 µM; GI50 (M19-MEL melanoma): 2.38 µM |
| O=c1[nH]c2ccccc2c2nc3ccccc3n12 | – | – | – | – | – | – | > 100 | – | – |
| CC(=O)OC1CCC2(C)C(CCC3C2CC(=O)C2(C)C3CC(N3CC3)C2C(C)=O)C1 (centres undefined) | – | – | – | – | – | – | 56.2 | – | – |
